The text below walks through data of paper PMC9147171, “Pharmacokinetic/Pharmacodynamic Evaluation of a New Purine-2,6-Dione Derivative in Rodents with Experimental Autoimmune Diseases” (Pharmaceutics, 2022).

Data set [1] in a line: Pharmacokinetic study in mice, single IP dose, serum. It counts as in vivo, female C57BL/6 mice. As to conditions: female, mouse. The procedure:
Female Lewis rats and female C57BL/6 mice were administered IP with compound 34 dissolved in vehicle at a dose of 20 and 50 mg·kg^−1, respectively. Rats and mice were sacrificed at different time points (n = 3 per time point) following compound administration by decapitation under deep anesthesia. Thereafter, blood samples were harvested and allowed to clot at room temperature for 20 min and serum was separated by centrifugation at 3000 rpm for 10 min (EBA 12 R, Hettich, Germany). The obtained serum samples were stored at −80 °C until analysis.
Concentrations of compound 34 in rat and murine serum were quantified by an HPLC/UV method. To isolate the investigated compound, 100 μL of serum containing compound 34 or the same volume of blank serum spiked with a standard solution of compound 34, 10 μL of 4-(8-((furan-2-ylmethyl)amino)-1,3-dimethyl-2,6-dioxo-2,3,6,7-tetrahydro-1H-purin-7-yl)-N’-(2-hydroxybenzylidene)butanehydrazide methanol solution was used as an internal standard (IS) at a concentration of 80 μg·mL^−1, and 50 μL of 0.2 M NaOH solution was added. Subsequently, 1 mL of ethyl acetate was added to each sample and extraction was performed for 20 min on a VXR Vibrax shaker (IKA, Germany). Then, the samples were centrifuged (10,000× g, 5 min) on EBA 12 R centrifuge (Hettich, Germany) and the organic layers were collected and transferred to clean tubes. Subsequently, the organic layers were evaporated under a mild stream of nitrogen at 37 °C and the residues were dissolved in 100 μL of mobile phase and subjected to an HPLC analysis. The HPLC system (LaChrom Elite, Merck-Hitachi, Germany) consisted of L-2420 UV-VIS detector, an L-2200 autosampler, and an L-2130 pump. EZChrome Elite v. 3.2 (Merck-Hitachi, Germany) software was used for data acquisition and integration. The analysis was performed at ambient temperature on a LiChrospher 100 RP-18 column (250 × 4 mm) and a LiChroCART (4 × 4 mm) pre-column (Merck, Germany). The mobile phase was composed of acetonitrile mixed with 20 mM KH2PO4 water solution (pH = 4.5) at the ratio of 40:60 (v/v). A flow rate was 1 mL·min^−1 and analytical wavelength was set at 302 nm. The retention times of compound 34 and IS were approximately 6.3 min and 10.6 min. The method was validated according to the FDA Bioanalytical Method Validation Guidance for Industry (2018). The calibration curves constructed by plotting the peak area of the studied compound to the peak area of the IS vs. compound concentrations were linear in the tested concentration range, i.e., from 0.05–10 mg·L^−1 (r > 0.998). The limit of quantification was 0.05 mg·L^−1. […] The assay presented acceptable intra- and inter-assay precision and accuracy (i.e., they were within 15% of the CV and 15% of the nominal concentration, respectively) for all quality control concentrations (0.1, 1, and 5 mg·L^−1). The mean extraction efficiencies of the analyzed compound and the IS were above 80%.
Pharmacokinetics of compound 34 were investigated in rats and mice following single IP administration. One- and two-compartment models with first-order absorption and linear elimination were tested, but only the one-compartment model appropriately described the concentration-time courses of compound 34 in both rat and murine serum. […] The equations of the model are as follows:(1) dA/dt=−ka×A;A0=D×F, (2) Vd×dCp/dt=ka×A−CLT×Cp; Cp0=0 where A is the amount of the drug at the absorption site, ka is the first-order rate constant of drug absorption, D is the dose, F is the bioavailability, Vd is the volume of distribution, CLT is the total clearance, and Cp is the serum concentration of compound 34.

The test system of data set [2] is MOG35–55-induced EAE in mice. The data set is described as follows: MOG35-55-induced experimental autoimmune encephalomyelitis (EAE) in mice, PK/PD EAE progression model. Type of data set: in vivo, female C57BL/6 mice. The procedure:
Female C57BL/6 mice were immunized by subcutaneous injection of MOG35–55 peptide emulsified in complete Freund’s adjuvant and IP administration of pertussis toxin solution in PBS (Hooke Laboratories, Inc., Lawrence, MA, USA). Mice developed EAE 8–14 days after immunization and on day 14 they were randomly divided into two groups. The study group (n = 6) was administered with compound 34 solution at an IP dose of 50 mg·kg^−1 once daily for 15 days, whereas the control group (n = 6) received vehicle alone. To follow the progress of the disease, clinical score (CS) (scale 0–5), including “in-between” scores (i.e., 0.5, 1.5, 2.5, 3.5, and 4.5), and body weight of mice were evaluated according to the protocol provided by Hooke Laboratories, Inc.. Using the Mann–Whitney U test, it was verified that there is no significant difference in CS between the groups on the day of randomization. […]
The model assumes that some time is required for the compound to distribute from the serum to the site of action before it interacts with a biological target and exerts the pharmacological effect. […] The progression of disease, which was measured by CS, is stimulated by the sum of the signals from 20th and 38th transit compartments that allows us to capture the onset of the disease, the temporary remission, and the relapse of the disease that is a characteristic feature of this animal model of MS [30]. […]

For data set [3], the system named is PDE4B. The data set is described as follows: PDE inhibition assay, PDE4B (previous investigations). It counts as biochemical. As to conditions: ratio of IC50 values, vs GRMS-55.
Data set [4] concerns LPS-induced endotoxemia in rats. Also noted: method as in PMID 29407965. The note with it: single IP dose of 50 mg·kg^−1, at 1.5 h post-LPS dosing; cited from earlier work.

The term half-life denotes the time in which the quantity being followed falls by half. Regarding `Cn1c(=O)c2c(nc(NCCc3ccccc3)n2CCCC(=O)NN=Cc2ccc(O)c(O)c2O)n(C)c1=O` [Compound 34, 4-(1,3-dimethyl-2,6-dioxo-8-(phenethylamino)-2,3,6,7-tetrahydro-1H-purin-7-yl)-N′-(2,3,4-trihydroxybenzylidene)butanehydrazide], the absorption half-life in data set [1] (C57BL/6, serum, 50 mg·kg^−1, IP, solution in DMSO:PEG400:sterile water (10:40:50)) turned out to be 4.5 min. Also, in data set [1] (C57BL/6, single IP dose 50 mg·kg^−1, serum, one-compartment model, read-out: Vd/F Apparent volume of distribution, Final Estimate (CV%)), the Vd/F was 21.7 L/kg. Further, in data set [1] (C57BL/6, single IP dose 50 mg·kg^−1, serum, read-out: AUC Area under the concentration-time curve, Final Estimate (CV%) (converted)), the AUC is 818 ng·h/mL. Further, in data set [1] (C57BL/6, single IP dose 50 mg·kg^−1, serum, read-out: CLT/F Apparent clearance, Final Estimate (CV%)), the CL/F is 1020 mL/min/kg. Also, the Cmax in data set [1] (C57BL/6, single IP dose 50 mg·kg^−1, serum, read-out: Cmax Maximum serum concentration, Final Estimate (CV%)) is 1370 ng/mL. Moreover, the half-life in data set [1] (C57BL/6, single IP dose 50 mg·kg^−1, serum, read-out: t0.5 Elimination half-life, Final Estimate (CV%)) is 14.7 min. Further, in data set [2] (50 mg·kg^−1 IP once daily for 15 days), the “mean relative body weight, experimental vs control group” value was “not significantly different”. Besides, in data set [2] (Mus musculus, ip, 50 mg·kg^−1 IP once daily for 15 days from day 14, clinical score, PK/PD model estimate, read-out: IC50_CS Compound 34 concentration resulting in 50% inhibition of disease progression, Estimate (CV%)), the IC50 at 50 mg/kg was 7 ng/mL. The “times more active as a PDE4B inhibitor compared to GRMS-55” value in data set [3] is listed as 19 times. The “reduction of maximum plasma TNFα concentrations” value in data set [4] was 84%.
